Test results published in patent US20190367516A1 (Bayer Pharma Aktiengesellschaft, priority 2015, published 2019).
Like-named read-outs stand apart in the source and are kept apart here.

Molecular target: T1, human M2 receptor (Homo sapiens, UniProt P08172)
T1 sequence (P08172 1-466): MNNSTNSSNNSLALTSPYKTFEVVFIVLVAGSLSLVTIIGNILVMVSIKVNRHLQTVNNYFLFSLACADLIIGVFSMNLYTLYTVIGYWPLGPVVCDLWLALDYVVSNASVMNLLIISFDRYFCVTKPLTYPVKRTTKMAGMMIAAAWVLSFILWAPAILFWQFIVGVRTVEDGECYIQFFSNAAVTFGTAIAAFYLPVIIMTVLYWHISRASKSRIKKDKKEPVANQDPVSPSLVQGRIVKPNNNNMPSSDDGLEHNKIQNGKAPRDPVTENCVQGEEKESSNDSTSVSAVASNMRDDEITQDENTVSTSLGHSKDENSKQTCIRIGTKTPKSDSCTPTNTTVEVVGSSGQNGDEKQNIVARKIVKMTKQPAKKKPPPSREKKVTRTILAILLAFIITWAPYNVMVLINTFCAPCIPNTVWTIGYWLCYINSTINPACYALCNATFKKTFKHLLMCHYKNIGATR

[1] = Receptor activity EC50, M2-GIRK1/4 activation test, acetylcholine at EC20, allosteric potency, in some cases mean values from two or more determinations
[2] = Receptor activity EC50, allosteric potency at EC20 acetylcholine, M2-GIRK1/4 reporter cells, in some cases mean of two or more determinations
[3] = read-out: Efficiency, boosting of the acetylcholine effect at EC20 acetylcholine concentration, M2-GIRK1/4 reporter cells

| Structure (SMILES) | EC50 [1] | EC50 [2] | Emax [3] | other results |
| --- | --- | --- | --- | --- |
| CC(C)(CC(F)(F)F)NC(=O)c1cn(-c2c(F)cc(F)cc2F)c2nc(N3CCCN(CCO)C3=O)ccc2c1=O [Example 383, 7-[3-(2-Hydroxyethyl)-2-oxotetrahydropyrimidin-1(2H)-yl]-4-oxo-N-(4,4,4-trifluoro-2-methylbutan-2-yl)-1-(2,4,6-trifluorophenyl)-1,4-dihydro-1,8-naphthyridine-3-carboxamide] | 0.018 µM | – | – | – |
| O=C(N[C@@H](C1CC1)C(F)(F)F)c1cn(-c2c(F)cc(F)cc2F)c2nc(N3CCC(O)C(O)C3)ccc2c1=O (mixture of isomers) [Example 615, N-[(1 S)-1-Cyclopropyl-2,2,2-trifluoroethyl]-7-[trans-3,4-dihydroxypiperidin-1-yl]-4-oxo-1-(2,4,6-trifluorophenyl)-1,4-dihydro-1,8-naphthyridine-3-carboxamide] | – | 0.053 µM | 99.3% | – |
| CN(C)c1ccc2c(=O)c(C(=O)NC(C(F)(F)F)C(F)(F)F)cn(-c3ccc(F)cc3F)c2n1 [Example 149, 1-(2,4-Difluorophenyl)-7-(dimethylamino)-N-(1,1,1,3,3,3-hexafluoropropan-2-yl)-4-oxo-1,4-dihydro-1,8-naphthyridine-3-carboxamide] | 0.085 µM | – | – | – |
| CC[C@@H](NC(=O)c1cn(-c2c(Cl)cc(F)cc2Cl)c2nc(N3CCNC3=O)ccc2c1=O)C(F)(F)F [Example 649, 1-(2,6-Dichloro-4-fluorophenyl)-4-oxo-7-(2-oxoimidazolidin-1-yl)-N-[(2R)-1,1,1-trifluorobutan-2-yl]-1,4-dihydro-1,8-naphthyridine-3-carboxamide] | – | 0.083 µM | 94% | – |
| O=C(N[C@@H](C1CC1)C(F)(F)F)c1cn(-c2c(F)cc(F)cc2F)c2nc(N3C[C@@H](O)[C@@H](O)C3)ccc2c1=O [Example 630, N-[(1S)-1-Cyclopropyl-2,2,2-trifluoroethyl]-7-[(3R,4S)-3,4-dihydroxypyrrolidin-1-yl]-4-oxo-1-(2,4,6-trifluorophenyl)-1,4-dihydro-1,8-naphthyridine-3-carboxamide] | – | 0.048 µM | – | Emax (read-out: Efficiency): 100% |
| CC(C)C[C@@H](NC(=O)c1cn(-c2c(F)cc(F)cc2F)c2nc(N3C[C@@H](O)CC3=O)ccc2c1=O)C(F)(F)F [Example 658, 7-[(4S)-4-Hydroxy-2-oxopyrrolidin-1-yl]-4-oxo-N-[(2R)-1,1,1-trifluoro-4-methylpentan-2-yl]-1-(2,4,6-trifluorophenyl)-1,4-dihydro-1,8-naphthyridine-3-carboxamide] | – | 0.006 µM | 100% | – |
| CC(C)CC(NC(=O)c1cn(-c2ccc(F)cc2F)c2nc(N(C)C)ccc2c1=O)C(F)(F)F (racemic) [Example 145, rac-1-(2,4-Difluorophenyl)-7-(dimethylamino)-4-oxo-N-(1,1,1-trifluoro-4-methylpentan-2-yl)-1,4-dihydro-1,8-naphthyridine-3-carboxamide] | 0.03 µM | – | – | – |
| CN(C[C@H](O)CO)c1ccc2c(=O)c(C(=O)N[C@@H](C3CC3)C(F)(F)F)cn(-c3c(F)cc(F)cc3F)c2n1 [Example 491] | – | 0.106 µM | 85.5% | – |
| CC(NC(=O)c1cn(-c2c(F)cc(F)cc2F)c2nc(N3C[C@@H](O)[C@H](O)C3)ccc2c1=O)C(F)(F)C(F)(F)F (mixture of isomers) [Example 549, 7-[(3R,4R)-3,4-Dihydroxypyrrolidin-1-yl]-4-oxo-N-[3,3,4,4,4-pentafluorobutan-2-yl]-1-(2,4,6-trifluorophenyl)-1,4-dihydro-1,8-naphthyridine-3-carboxamide] | – | – | – | Emax (read-out: Efficiency): 100% |
| O=C(N[C@H](C1CC1)C(F)(F)F)c1cn(-c2c(Cl)cc(F)cc2Cl)c2nc(N3C[C@@H](O)CC3=O)ccc2c1=O [Example 387, N-[(1R)-1-Cyclopropyl-2,2,2-trifluoroethyl]-1-(2,6-dichloro-4-fluorophenyl)-7-[(4S)-4-hydroxy-2-oxopyrrolidin-1-yl]-4-oxo-1,4-dihydro-1,8-naphthyridine-3-carboxamide] | 0.042 µM | – | – | – |
| CC[C@H](NC(=O)c1cn(-c2c(Cl)cc(F)cc2Cl)c2nc(N3C[C@@H](O)CC3=O)ccc2c1=O)C(F)(F)F [Example 389, 1-(2,6-Dichloro-4-fluorophenyl)-7-[(4S)-4-hydroxy-2-oxopyrrolidin-1-yl]-4-oxo-N-[(2S)-1,1,1-trifluorobutan-2-yl]-1,4-dihydro-1,8-naphthyridine-3-carboxamide] | 0.038 µM | – | – | Emax (read-out: Efficiency): 85.5% |

Continued, in another order:

| EC50 [1] | EC50 [2] | Emax [3] | Structure (SMILES) | other results |
| --- | --- | --- | --- | --- |
| 0.141 µM | – | – | CC(NC(=O)c1cn(-c2ccc(F)cc2F)c2nc(N(C)CC(F)F)ccc2c1=O)C(F)(F)F (racemic) [Example 113, rac-7-[(2,2-Difluoroethyl)(methyl)amino]-1-(2,4-difluorophenyl)-4-oxo-N-[1,1,1-trifluoropropan-2-yl]-1,4-dihydro-1,8-naphthyridine-3-carboxamide] | – |
| – | 0.029 µM | 92% | CC[C@H](NC(=O)c1cn(-c2c(F)cc(F)cc2F)c2nc(N(C)C[C@H](C)O)ccc2c1=O)C(F)(F)F [Example 497] | – |
| – | 0.017 µM | 100% | O=C(NC(c1ccccc1Cl)C(F)(F)F)c1cn(-c2c(F)cc(F)cc2F)c2nc(N3C[C@@H](O)[C@H](O)C3)ccc2c1=O (mixture of isomers) [Example 560, N-[1-(2-Chlorophenyl)-2,2,2-trifluoroethyl]-7-[(3R,4R)-3,4-dihydroxypyrrolidin-1-yl]-4-oxo-1-(2,4,6-trifluorophenyl)-1,4-dihydro-1,8-naphthyridine-3-carboxamide] | – |
| 0.101 µM | – | – | CN(c1ccc2c(=O)c(C(=O)NC34CC5CC(CC(C5)C3)C4)cn(-c3ccc(F)cc3F)c2n1)S(C)(=O)=O [Example 169] | – |
| – | 0.018 µM | 98% | CC(NC(=O)c1cn(-c2c(F)cc(F)cc2F)c2nc(N3C[C@@H](O)[C@H](O)C3)ccc2c1=O)C1CCC1 (mixture of isomers) [Example 476, N-[1-Cyclobutylethyl]-7-[(3R,4R)-3,4-dihydroxypyrrolidin-1-yl]-4-oxo-1-(2,4,6-trifluorophenyl)-1,4-dihydro-1,8-naphthyridine-3-carboxamide] | – |
| 0.09 µM | – | – | O=C(NC12CC3CC(CC(C3)C1)C2)c1cn(-c2ccc(F)cc2F)c2nc(N3CCC(F)(CO)CC3)ccc2c1=O [Example 16, 1-(2,4-Difluorophenyl)-7-[4-fluoro-4-(hydroxymethyl)piperidin-1-yl]-4-oxo-N-(tricyclo[3.3.1.1^3,7]dec-1-yl)-1,4-dihydro-1,8-naphthyridine-3-carboxamide] | – |
| – | 0.054 µM | 92.5% | CC(C)[C@@H](C)NC(=O)c1cn(-c2c(F)cc(F)cc2F)c2nc(N3C[C@@H](O)[C@H](O)C3)ccc2c1=O [Example 483, 7-[(3R,4R)-3,4-Dihydroxypyrrolidin-1-yl]-N-[(2R)-3-methylbutan-2-yl]-4-oxo-1-(2,4,6-trifluorophenyl)-1,4-dihydro-1,8-naphthyridine-3-carboxamide] | – |
| – | 0.17 µM | – | CC[C@@H](NC(=O)c1cn(-c2ccc(F)cc2F)c2nc(N3CC(C)NC3=O)ccc2c1=O)C(F)(F)F (single isomer, unassigned) [Example 433] | Efficiency (boosting of the acetylcholine effect at EC20 acetylcholine concentration, M2-GIRK1/4 reporter cells): 100.0% |
| 0.03 µM | – | – | CC[C@@H](NC(=O)c1cn(-c2c(F)cccc2Cl)c2nc(N3CC[C@@H](O)C3=O)ccc2c1=O)C(F)(F)F [Example 308, 1-(2-Chloro-6-fluorophenyl)-7-[(3R)-3-hydroxy-2-oxopyrrolidin-1-yl]-4-oxo-N-[(2R)-1,1,1-trifluorobutan-2-yl]-1,4-dihydro-1,8-naphthyridine-3-carboxamide] | – |
